Reference: PMC12558477, “Flavin affinity for the reductase HpaC differentially sensitizes Neisseria gonorrhoeae during Type IV pilus-dependent killing” (PLOS Pathogens, 2025)

Target: T1, HpaC (Gc HpaC, FA1090 HpaC) (Neisseria gonorrhoeae, UniProt Q5FAG3)
T1 construct: gene NGO_0059; His6-tagged full-length HpaC from pET28a, expressed in E. coli BL21(DE3); 166 residues; co-purifies with FAD; oligomer not measured (modelled on TftC homodimer)
Test: FAD released from purified protein by heat denaturation, coupled-enzyme fluorescent probe kit
Format: binding
Settings: 0.5 µM protein, with and without 95 °C for 5 min; room temperature; co-purified FAD

T1 sequence (Q5FAG3 entry or part of it): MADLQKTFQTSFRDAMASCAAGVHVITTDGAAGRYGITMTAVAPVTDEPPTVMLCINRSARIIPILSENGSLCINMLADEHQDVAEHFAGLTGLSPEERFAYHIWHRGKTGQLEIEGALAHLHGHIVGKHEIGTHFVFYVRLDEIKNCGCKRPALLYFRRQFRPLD

With Cc1cc2nc3c(=O)[nH]c(=O)nc-3n(C[C@H](O)[C@H](O)[C@H](O)COP(=O)(O)OP(=O)(O)OC[C@H]3O[C@@H](n4cnc5c(N)ncnc54)[C@H](O)[C@@H]3O)c2cc1C [FAD] the “FAD released from purified protein by heat denaturation, coupled-enzyme fluoresc” value was “We purified Gc HpaC and noticed an FAD signal in the absence of heat”.
